For experiment [1], the system named is E. coli NCTC 13353 (CTX-M15, OXA-1). Kind of experiment: Antibacterial activity, MIC by agar dilution (CLSI). It is filed as cell-based. Particulars: Escherichia coli, NCTC13353, Table 2; E. Coli NCTC 13353 (CTX-M15, OXA-1); read-out: MIC. The gist of the method: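 CLSI agar dilution on Mueller Hinton agar containing doubling compound dilutions, inoculated at about 10^4 CFU/spot from fresh cultures. Plates were incubated 18 h at 37 °C in ambient air before growth scoring. MIC is reported in mcg/ml.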
Background: In agar dilution, organisms are placed on agar that contains the substance at set levels.

The target in experiment [2] is T1, Class D beta-lactamase, A. baumannii NCTC 13301 (OXA 23) (Acinetobacter baumannii, UniProt Q9L4P2).
T1 construct: preincubated mixture of crude enzyme and the agents; endogenous in cells; host or cells: A. baumannii NCTC 13301
T1 sequence (Q9L4P2 18-273): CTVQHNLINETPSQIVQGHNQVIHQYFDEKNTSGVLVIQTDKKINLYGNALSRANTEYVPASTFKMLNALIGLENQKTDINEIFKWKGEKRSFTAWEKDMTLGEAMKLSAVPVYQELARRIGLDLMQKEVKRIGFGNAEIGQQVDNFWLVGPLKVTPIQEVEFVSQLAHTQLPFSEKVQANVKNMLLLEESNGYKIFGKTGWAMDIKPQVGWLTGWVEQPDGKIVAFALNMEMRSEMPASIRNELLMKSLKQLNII
Kind of experiment: Beta-lactamase enzyme inhibition (nitrocefin, crude enzyme). It is filed as biochemical. Particulars: Class D A. baumannii NCTC 13301 (OXA 23); read-out: Beta-lactamase enzyme inhibition IC50. The procedure, abridged:
(§1)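 Crude enzyme preincubated with inhibitor 10 min at 37 °C, then nitrocefin (100 uM) added for 5 min. Absorbance read at 485 nm; IC50 obtained from sigmoidal dose-response fit of absorbance versus concentration.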

Experiment [3] concerns T2, Class C beta-lactamase, E. coli M50 (CMY/DHA).
T2 construct: no borders, tags or purification printed
The format is biochemical. Particulars: read-out: Beta-lactamase enzyme inhibition IC50. The gist of the method:
as §1

The test system of experiment [4] is K. pneomoniae S48 (NDM, SHV, TEM). Kind of experiment: Antibacterial activity, MIC by agar dilution (CLSI). It is filed as cell-based, K. pneumoniae. To be noted: Klebsiella pneumoniae; Table 2; K. pneomoniae S48 (NDM, SHV, TEM); read-out: MIC. The gist of the method: (§2)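 Agar dilution per CLSI on Mueller Hinton agar with doubling compound dilutions, about 10^4 CFU/spot by multipoint inoculator. Plates incubated 16-20 h at 35±2° C in ambient air; procedure also gives 37° C for 18 h. MIC (mcg/ml) scored as growth or no growth.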

Experiment [5] concerns the target T3, Class A beta-lactamase, K. pneumoniae ATCC 700603 (SHV 18) (Klebsiella pneumoniae, UniProt P0AD64, E235K/G234A/R39S).
T3 construct: preincubated mixture of crude enzyme and the agents; endogenous in cells; host or cells: K. pneumoniae ATCC 700603
Kind of experiment: biochemical. The procedure, abridged: as §1

Experiment [6] deals with K. pneumoniae H521 (KPC, SHV, TEM). Kind of experiment: Antibacterial activity, MIC by agar dilution (CLSI). It is filed as cell-based. Particulars: Klebsiella pneumoniae, Table 2; K. pneumoniae H521 (KPC, SHV, TEM); read-out: MIC. The procedure, abridged:
as §2

The next experiment has as its system E. coli NCTC 13353. Kind of experiment: Zone of inhibition, compound alone and in combination with ceftazidime (agar well). It is filed as cell-based. To be noted: for zone of inhibition at 0.25 µg/disc / zone of inhibition at 0.5 µg/disc / zone of inhibition at 1 µg/disc / zone of inhibition at […]: Escherichia coli, NCTC13353, E. coli NCTC 13353, read-out: Diameter of Zone of Inhibition; for zone of inhibition at 0.5 µg/disc: 0.5 μg/well; for zone of inhibition at 1 µg/disc: 1 μg/well. Here is the method: (§3) Determination of antibacterial activity of combinations according to invention: In a typical experiment, two sets of plates containing growth media (Molten Mueller Hilton Agar) and bacterial strains were prepared. One set of plates was taken as control (without ceftazidime) and other set contained ceftazidime. The media was allowed to solidify and wells were punched later. A two-fold serial dilution range of each of the compounds according to invention was prepared and 50 μl of each of the dilution was added into the punched well. […] The Table 5 provides the antibacterial activity of the combination comprising compounds according to invention and ceftazidime.

Another experiment relates to E. coli M50. Described as above. It is filed as cell-based. Particulars: for Diameter of Zone of Inhibition: E. coli M50; for zone of inhibition at 0.5 µg/disc: 0.5 μg/well; for zone of inhibition at 1 µg/disc: 1 μg/well. Here is the method:
as §3

Where [7] appears, read: Compound + Ceftazidime (10 μg/ml), 0.25 μg/well.
[8] abbreviates: Compound + Ceftazidime (10 μg/ml).
[9] abbreviates: Escherichia coli, M50, E. coli M50, Compound + Ceftazidime (10 μg/ml), 0.25 μg/well, read-out: Diameter of Zone of Inhibition.
Setting [10] is: Escherichia coli, M50, E. coli M50, Compound + Ceftazidime (10 μg/ml), read-out: Diameter of Zone of Inhibition.
Where [11] appears, read: Escherichia coli, M50, E. coli M50, Compound alone, read-out: Diameter of Zone of Inhibition.

Values after ≈ are worked out from the molar mass of the structure shown. Read-outs that look alike come from different tables or passages of the source.

We go through two molecules from US9822115B2, “Nitrogen containing compounds and their use as antibacterial agents” (WOCKHARDT LIMITED, priority 2014, dated 2017).

T3 sequence (P0AD64 22-286 R39S/G234A/E235K): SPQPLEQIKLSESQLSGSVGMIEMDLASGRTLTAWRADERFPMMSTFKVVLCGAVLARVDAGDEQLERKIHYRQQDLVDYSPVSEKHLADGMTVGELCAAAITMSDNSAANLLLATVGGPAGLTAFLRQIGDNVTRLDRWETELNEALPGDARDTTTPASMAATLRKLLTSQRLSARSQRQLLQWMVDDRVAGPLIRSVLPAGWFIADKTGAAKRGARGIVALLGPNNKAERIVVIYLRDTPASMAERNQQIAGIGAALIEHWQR

By MIC is commonly meant the lowest concentration found to suppress growth. In general, IC50 refers to the concentration that inhibits the measured activity by half. One may read the zone of inhibition as the size of the clear area around the sample on an inoculated plate. As to `C[C@@H](N)COc1ccccc1CC(=O)NNC(=O)[C@@H]1CC[C@@H]2CN1C(=O)N2OS(=O)(=O)O` [Example 3, (2S,5R)-Sulfuric Acid mono-[2-(N′-{2-[2-((R)-2-amino-propoxy)-phenyl]-acetyl}-hydrazinocarbonyl)-7-oxo-1,6-diaza-bicyclo[3.2.1]oct-6-yl]ester], the minimum inhibitory concentration (MIC) in experiment [1] was determined as 1 mg/L (≈ 2.12 µM); in experiment [4], 1 mg/L (≈ 2.12 µM); in experiment [6], 2 mg/L (≈ 4.24 µM). The IC50 turned out to be 2.02 µM in experiment [2], 0.073 µM in experiment [3] and 0.08 µM in experiment [5]. For the same molecule, the “Diameter of Zone of Inhibition” value in the experiment on E. coli NCTC 13353 (E. coli NCTC 13353, Compound alone, 0.25 μg/well) was “No growth”; in the experiment on E. coli M50 (Compound + Ceftazidime (10 μg/ml), […]) it was “No growth”; with E. coli M50 (Compound alone, 0.25 μg/well), “No growth”. In addition, the zone of inhibition at 0.25 µg/disc in the experiment with E. coli NCTC 13353 (setting [7]) is 14.5 mm; with E. coli M50 (setting [9]), 10.5 mm. In addition, the zone of inhibition at 0.5 µg/disc turned out to be 17.5 mm with E. coli NCTC 13353 (setting [8]), 10 mm with E. coli NCTC 13353 (Compound alone), 14 mm with E. coli M50 (setting [10]) and 11.5 mm with E. coli M50 (setting [11]). The zone of inhibition at 1 µg/disc in the experiment on E. coli NCTC 13353 (setting [8]) is 21.5 mm; in the experiment with E. coli NCTC 13353 (Compound alone), 13 mm; with E. coli M50 (setting [10]), 17 mm; in the experiment with E. coli M50 (setting [11]), 14 mm. For the same molecule, in the experiment on E. coli NCTC 13353 (setting [8]), the zone of inhibition at […] turned out to be 11 mm.
Turning to `NCc1ccc(CC(=O)NNC(=O)[C@@H]2CC[C@@H]3CN2C(=O)N3OS(=O)(=O)O)cc1` [Example 12, (2S,5R)-sulfuric acid mono-[2-(N′-(4-aminomethyl-phenyl-acetyl)-hydrazinocarbonyl)-7-oxo-1,6-diaza-bicyclo[3.2.1]oct-6-yl]ester], the MIC in experiment [1], in experiment [4] and in experiment [6] was 0.25 mg/L (≈ 0.585 µM) throughout. Besides, the IC50 in experiment [2] came to 0.539 µM; in experiment [3], 0.013 µM; in experiment [5] it was 0.144 µM. For the same molecule, the zone of inhibition at 0.25 µg/disc with E. coli NCTC 13353 (setting [7]) was determined as 22 mm; with E. coli NCTC 13353 (Compound alone, 0.25 μg/well) it was 15.5 mm; in the experiment on E. coli M50 (setting [9]), 19 mm; with E. coli M50 (Escherichia coli, M50, E. coli M50, Compound alone, 0.25 μg/well, read-out: Diameter of Zone of Inhibition), 15 mm. For the same molecule, the zone of inhibition at 0.5 µg/disc in the experiment on E. coli NCTC 13353 (setting [8]) was found to be 26 mm; in the experiment with E. coli NCTC 13353 (Compound alone), 17 mm; in the experiment with E. coli M50 (setting [10]), 21 mm; in the experiment with E. coli M50 (setting [11]) it was 18 mm. Besides, the zone of inhibition at 1 µg/disc with E. coli NCTC 13353 (setting [8]) stood at 29 mm; in the experiment with E. coli NCTC 13353 (Compound alone), 19 mm; in the experiment with E. coli M50 (setting [10]), 23 mm; in the experiment with E. coli M50 (setting [11]), 19.5 mm. In addition, the zone of inhibition at […] with E. coli NCTC 13353 (setting [8]) is 19 mm; with E. coli M50 (Escherichia coli, M50, E. coli M50, Compound + Ceftazidime (10 μg/ml), […], read-out: Diameter of Zone of Inhibition) it was 16 mm.
